Experimental data reported in paper PMC6264553, “Synthesis and In Vitro Protein Tyrosine Kinase Inhibitory Activity of Furan-2-yl(phenyl)methanone Derivatives” (Molecules, 2011).

Experiments:
[1] = molecular target: Protein Tyrosine Kinase (PTK); assay: PTK inhibitory activity, ELISA tyrosine kinase assay with poly-Glu-Tyr substrate; format: biochemical, rat; settings: for IC50: tyrosine kinase extracted from rat brain tissue, means of three experiments, NA = not active at 5 μg/mL, read-out: Protein Tyrosine Kinase (PTK) inhibition activity, IC50; for PTK inhibitory activity (in words): in vitro, SAR discussion
Procedure: The activities of PTKs were tested using ELISA. The tyrosine kinase was extracted from brain tissue of rat, and microtiter plates were coated using poly-Glu-Tyr (PGT) as substrates. If the tyrosine residues of PGT were phosphorylated by PTKs, they bound to phospho-specific monoclonal antibody that was labeled specifically with HRP. The absorbance was measured to reflect the activity of PTK.
The phosphorylation assays were performed at 37 °C in a final volume of 40 µL tyrosine kinase. The concentrations of PTKs used to construct calibration curves were as follows: 600, 500, 400, 300, 200 and 100 × 10^−7 U/mL for PTK. A concentration of 500 × 10^−7/μL was used for each inhibitor. Phosphorylation reactions were initiated with the addition of 40 mM ATP (10 μL) into each vessel, and the plate was incubated at 37 °C for 30 min. After completion of reaction, liquid was decanted and the vessels were washed four times with Tween-PBS. One hundred microliters of blocking solution was added to the vessels and incubated at 37 °C for 30 min. After washing the plate with Tween-PBS, anti-phosphotyrosine (50 μL) was added to the vessels and incubated at 37 °C for 30 min. The reaction liquid was decanted and the remaining solution was removed by rinsing four times with Tween-PBS. One hundred μL of HRP coloring agent was added and incubated at 37 °C for 15 min. The reaction was terminated by addition of 1 N sulfuric acid (100 μL /well). The absorbance of the reaction was measured at 450 nm on a microplate reader.

Row | SMILES | melting point | IC50 [1] | PTK inhibitory activity (in words) [1]
1 | COc1ccc(C(=O)c2ccco2)cc1OC [Compound 3a, (3,4-Dimethoxyphenyl)(furan-2-yl)methanone] | 98 to 100 °C |  | 
2 | COc1ccc(C(=O)c2ccco2)c(OC)c1O [Compound 3b, Furan-2-yl(3-hydroxy-2,4-dimethoxyphenyl)methanone] | 168 to 170 °C |  | 
3 | COc1ccc(Br)cc1C(=O)c1ccco1 [Compound 3c, (5-Bromo-2-methoxyphenyl)(furan-2-yl)methanone] | 66 to 70 °C |  | 
4 | COc1ccc(C(=O)c2ccco2)cc1 [Compound 3d, Furan-2-yl(4-methoxyphenyl)methanone] | 58 to 60 °C |  | 
5 | O=C(c1ccc(O)c(O)c1)c1ccco1 [Compound 4a, (3,4-Dihydroxyphenyl)(furan-2-yl)methanone] | 132 to 134 °C | 4.66 µM | 
6 | O=C(c1ccco1)c1ccc(O)c(O)c1O [Compound 4b, Furan-2-yl(2,3,4-trihydroxyphenyl)methanone] |  | 6.42 µM | 
7 | O=C(c1ccco1)c1cc(Br)ccc1O [Compound 4c, (5-Bromo-2-hydroxyphenyl)(furan-2-yl)methanone] | 88 to 90 °C |  | 
8 | COc1ccc(Br)cc1C(=O)c1ccc(Br)o1 [Compound 7b, (5-Bromo-2-methoxyphenyl)(5-bromofuran-2-yl)methanone] | 98 to 100 °C |  | 
9 | O=C(c1ccc(Br)o1)c1ccc(O)c(O)c1O [Compound 8a, (5-Bromofuran-2-yl)(2,3,4-trihydroxyphenyl)methanone] | 132 to 134 °C | 5.31 µM | 
10 | O=C(c1ccc(Br)o1)c1cc(Br)ccc1O [Compound 8b, (5-Bromo-2-hydroxyphenyl)(5-bromofuran-2-yl)methanone] | 82 to 84 °C |  | 
11 | O=C(c1ccc(O)c(O)c1)c1ccc(Br)o1 [Compound 8c, (5-Bromofuran-2-yl)(3,4-dihydroxyphenyl)methanone] |  | 2.72 µM | strongest activity
12 | COc1ccc(C(=O)c2cc(Br)c(Br)o2)cc1O [Compound 13, (4,5-Dibromofuran-2-yl)(3-hydroxy-4-methoxyphenyl)methanone] | 107 to 109 °C |  | 
13 | O=C(c1ccc(O)c(O)c1)c1cc(Br)c(Br)o1 [Compound 14, (4,5-Dibromofuran-2-yl)(3,4-dihydroxyphenyl)methanone] | 184 to 186 °C |  | no activity
14 | COc1cccc(OC)c1C(=O)c1ccco1 [Compound 17b, (2,6-Dimethoxyphenyl)(furan-2-yl)methanone] | 64 to 66 °C |  | 
15 | O=C(c1ccco1)c1cccc(O)c1O [Compound 18a, (2,3-Dihydroxyphenyl)(furan-2-yl)methanone] | 64 to 66 °C | 13.2 µM | 
16 | O=C(c1ccco1)c1c(O)cccc1O [Compound 18b, (2,6-Dihydroxyphenyl)(furan-2-yl)methanone] | 66 to 68 °C | 12.7 µM | 
17 | COc1c(Br)c(C(=O)c2ccco2)c(Br)c(OC)c1OC [Compound 21b, (2,6-Dibromo-3,4,5-trimethoxyphenyl)(furan-2-yl)methanone] | 96 to 98 °C |  | 
18 | COc1cc(C(=O)c2ccco2)c(Cl)c(OC)c1OC [Compound 21c, (2-Chloro-3,4,5-trimethoxyphenyl)(furan-2-yl)methanone] | 80 to 82 °C |  | 
19 | COc1c(O)c(C(=O)c2ccco2)cc(Br)c1Br [Compound 21d, (4,5-Dibromo-2-hydroxy-3-methoxyphenyl)(furan-2-yl)methanone] | 102 to 104 °C |  | 
20 | O=C(c1ccc(O)c(Br)c1)c1ccco1 [Compound 22a, (3-Bromo-4-hydroxyphenyl)(furan-2-yl)methanone] | 100 to 102 °C |  | 
21 | O=C(c1ccco1)c1c(Br)c(O)c(O)c(O)c1Br [Compound 22b, (2,6-Dibromo-3,4,5-trihydroxyphenyl)(furan-2-yl)methanone] | 148 to 150 °C |  | no activity
22 | O=C(c1ccco1)c1cc(O)c(O)c(O)c1Cl [Compound 22c, (2-Chloro-3,4,5-trihydroxyphenyl)(furan-2-yl)methanone] | 150 to 152 °C | 4.62 µM | 
23 | O=C(c1ccco1)c1cc(Br)c(Br)c(O)c1O [Compound 22d, (4,5-Dibromo-2,3-dihydroxyphenyl)(furan-2-yl)methanone] | 138 to 140 °C | 9.56 µM | 
